# From patent US20100093721A1, “PHENYL AND HETEROARYL SUBSTITUTED THIENO[2,3-d]PYRIMIDINES AND THEIR USE AS ADENOSINE A2a RECEPTOR ANTAGONISTS” (priority 2008, published 2010)
# pKi: −log10 of the molar value.
# Tests used:
# [1] = target: T1, human adenosine A2a receptor (Homo sapiens, UniProt P29274); assay: Adenosine A2a Receptor Functional Assay (A2AGAL2); type: cell-based; conditions: CHO-K1 cells, cAMP inducible beta-galactosidase reporter, 15 nM NECA agonist challenge
# T1 construct: expressed in transfected cells; host or cells: CHO-K1
# Protocol: Adenosine A2a Receptor Functional Assay (A2AGAL2)
# Prior to assay, these plates were cultured for two days at 37° C., 5% CO2, 90% Rh. On the day of the functional assay, culture media was removed and replaced with 45 uL assay medium (Hams/F-12 Modified (Mediatech #10-080CV) supplemented w/0.1% BSA). Test compounds were diluted and 11 point curves created at a 1000× concentration in 100% DMSO. Immediately after addition of assay media to the cell plates, 50 nL of the appropriate test compound antagonist or agonist control curves were added to cell plates using a Cartesian Hummingbird. […] A control curve of NECA, a DMSO/Media control, and a single dose of Forskolin (Sigma F3917) were also included on each plate. After additions, cell plates were allowed to incubate at 37° C., 5% CO2, 90% Rh for 5.5-6 hours. After incubation, media was removed, and cell plates were washed 1×50 uL with DPBS w/o Ca & Mg (Mediatech 21-031-CV). Into dry wells, 20 uL of 1× Reporter Lysis Buffer (Promega E3971 (diluted in dH2O from 5× stock)) was added to each well and plates frozen at −20° C. overnight. For β-galactosidase enzyme colorimetric assay, plates were thawed out at room temperature and 20 μL 2× assay buffer (Promega) was added to each well. Color was allowed to develop at 37° C., 5% CO2, 90% Rh for 1-1.5 h or until reasonable signal appeared. The colorimetric reaction was stopped with the addition of 60 μL/well 1M sodium carbonate. Plates were counted at 405 nm on a SpectraMax Microplate Reader (Molecular Devices). Data was analyzed in Microsoft Excel and IC/EC50 curves were fit using a standardized macro.
# [2] = target: T2, human A2a adenosine receptor (Homo sapiens, UniProt P29274); assay: Ligand Binding Assay for Adenosine A2a Receptor; conditions: HEK293 plasma membrane, radioligand [3H]CGS21680; read-out: A2A-B Ki
# T2 construct: purchased PerkinElmer RB-HA2a; host or cells: HEK293 plasma membranes
# Protocol: Ligand Binding Assay for Adenosine A2a Receptor
# Ligand binding assay of adenosine A2a receptor was performed using plasma membrane of HEK293 cells containing human A2a adenosine receptor (PerkinElmer, RB-HA2a) and radioligand [^3H]CGS21680 (PerkinElmer, NET1021). Assay was set up in 96-well polypropylene plate in total volume of 200 μL by sequentially adding 20 μL 1:20 diluted membrane, 130 μL assay buffer (50 mM Tris.HCl, pH7.4 10 mM MgCl2, 1 mM EDTA) containing [^3H] CGS21680, 50 μL diluted compound (4×) or vehicle control in assay buffer. Nonspecific binding was determined by […] NECA. Reaction was carried out at room temperature for 2 hours before filtering through 96-well GF/C filter plate pre-soaked in 50 mM Tris.HCl, pH7.4 containing 0.3% polyethylenimine. Plates were then washed 5 times with cold 50 mM Tris.HCl, pH7.4, dried and sealed at the bottom. Microscintillation fluid 30 μL was added to each well and the top sealed. Plates were counted on Packard Topcount for [^3H]. Data was analyzed in Microsoft Excel and GraphPad Prism programs. (Varani, K.; Gessi, S.; Dalpiaz, A.; Borea, P. A. British Journal of Pharmacology, 1996, 117, 1693)
# [3] = target: T3, human adenosine A1 receptor (Homo sapiens, UniProt P30542); assay: Adenosine A1 Receptor Functional Assay (A1GAL2); type: cell-based; conditions: CHO-K1 cells, cAMP inducible beta-galactosidase reporter, 4 nM r-PIA/1 uM Forskolin challenge
# T3 construct: expressed in transfected cells; host or cells: CHO-K1
# T3 sequence (P30542 1-326): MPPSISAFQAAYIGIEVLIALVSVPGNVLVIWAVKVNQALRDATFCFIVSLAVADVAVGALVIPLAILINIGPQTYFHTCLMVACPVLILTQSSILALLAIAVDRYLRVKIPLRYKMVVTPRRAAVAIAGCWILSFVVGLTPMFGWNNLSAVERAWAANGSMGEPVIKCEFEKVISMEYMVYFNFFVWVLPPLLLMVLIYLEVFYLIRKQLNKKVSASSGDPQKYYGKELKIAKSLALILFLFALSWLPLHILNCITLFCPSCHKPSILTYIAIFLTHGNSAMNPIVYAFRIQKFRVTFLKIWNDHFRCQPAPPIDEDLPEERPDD
# Protocol: Adenosine A1 Receptor Functional Assay (A1GAL2)
# To initiate the functional assay, cryopreserved CHO-K1 cells overexpressing the human adenosine A1 receptor and containing a cAMP inducible beta-galactosidase reporter gene were thawed, centrifuged, DMSO containing media removed, and then seeded with fresh culture media into clear 384-well tissue culture treated plates (BD #353961) at a concentration of 10K cells/well. Prior to assay, these plates were cultured for two days at 37° C., 5% CO2, 90% Rh. On the day of the functional assay, culture media was removed and replaced with 45 uL assay medium (Hams/F-12 Modified (Mediatech #10-080CV) supplemented w/0.1% BSA). Test compounds were diluted and 11 point curves created at a 1000× concentration in 100% DMSO. Immediately after addition of assay media to the cell plates, 50 nL of the appropriate test compound antagonist or agonist control curves were added to cell plates using a Cartesian Hummingbird. Compound curves were allowed to incubate at room temperature on cell plates for approximately 15 minutes before addition of a 4 nM r-PIA (Sigma P4532)/1 uM Forskolin (Sigma F3917) agonist challenge (5 uL volume). A control curve of r-PIA in 1 uM Forskolin, a DMSO/Media control, and a single dose of Forskolin were also included on each plate. After additions, cell plates were allowed to incubate at 37° C., 5% CO2, 90% Rh for 5.5-6 hours. After incubation, media was removed, and cell plates were washed 1×50 uL with DPBS w/o Ca & Mg (Mediatech 21-031-CV). Into dry wells, 20 uL of 1× Reporter Lysis Buffer (Promega E3971 (diluted in dH2O from 5× stock)) was added to each well and plates frozen at −20° C. overnight. For β-galactosidase enzyme calorimetric assay, plates were thawed out at room temperature and 20 μL 2× assay buffer (Promega) was added to each well. Color was allowed to develop at 37° C., 5% CO2, 90% Rh for 1-1.5 h or until reasonable signal appeared. The calorimetric reaction was stopped with the addition of 60 μL/well 1M sodium carbonate. Plates were counted at 405 nm on a SpectraMax Microplate Reader (Molecular Devices). Data was analyzed in Microsoft Excel and IC/EC50 curves were fit using a standardized macro.
# T1 sequence (P29274 whole entry): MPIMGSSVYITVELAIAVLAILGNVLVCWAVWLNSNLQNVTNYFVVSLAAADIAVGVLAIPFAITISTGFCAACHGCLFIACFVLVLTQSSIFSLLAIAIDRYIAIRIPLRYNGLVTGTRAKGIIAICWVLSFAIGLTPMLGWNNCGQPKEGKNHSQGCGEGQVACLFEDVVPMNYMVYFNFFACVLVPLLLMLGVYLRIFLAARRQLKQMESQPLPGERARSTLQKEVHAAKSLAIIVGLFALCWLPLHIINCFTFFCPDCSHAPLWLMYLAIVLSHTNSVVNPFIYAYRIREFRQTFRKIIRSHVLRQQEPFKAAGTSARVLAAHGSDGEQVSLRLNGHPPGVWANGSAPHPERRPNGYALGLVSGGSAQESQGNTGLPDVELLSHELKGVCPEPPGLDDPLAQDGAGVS
# T2 sequence (P29274 whole entry): as above
Compound,pKi [1],pKi [2],pKi [3]
"Nc1nc(-c2cccnc2)nc2sc(Cc3ccccc3)cc12 [Example 13, 6-Benzyl-2-pyridin-3-yl-thieno[2,3-d]pyrimidin-4-ylamine]",6.67,6.72,5.85
"COc1ccccc1C(O)c1cc2c(N)nc(-c3ccc(C)o3)nc2s1 (stereo not drawn) [Example 11, [4-Amino-2-(5-methyl-furan-2-yl)-thieno[2,3-d]pyrimidin-6-yl]-(2-methoxy-phenyl)-methanol]",8.70,8.17,7.99
"Nc1nc(-c2ccc(C(F)F)o2)nc2sc(C(O)c3ccccc3)cc12 (stereo not drawn) [Example 41, [4-Amino-2-(5-difluoromethyl-furan-2-yl)-thieno[2,3-d]pyrimidin-6-yl]-phenyl-methanol]",7.95,7.75,6.65
"Cc1ccc(-c2nc(N)c3cc(C(=O)c4cccc(CN5CCOCC5)c4)sc3n2)o1 [Example 5, [4-Amino-2-(5-methyl-furan-2-yl)-thieno[2,3-d]pyrimidin-6-yl]-(3-morpholin-4-ylmethyl-phenyl)-methanone]",6.64,7.00,6.30
"Cc1csc(-c2nc(N)c3cc(Cc4ccccc4)sc3n2)n1 [Example 14, 6-Benzyl-2-(4-methyl-thiazol-2-yl)-thieno[2,3-d]pyrimidin-4-ylamine]",7.79,7.33,5.83
"CC(c1ccccc1)c1cc2c(N)nc(-c3ncco3)nc2s1 (racemic) [Example 21, (±)-2-Oxazol-2-yl-6-(1-phenyl-ethyl)-thieno[2,3-d]pyrimidin-4-ylamine]",7.71,7.14,5.93
"Nc1nc(-c2ccc(C(F)F)o2)nc2sc(Cc3ccccc3)cc12 [Example 43, 6-Benzyl-2-(5-difluoromethyl-furan-2-yl)-thieno[2,3-d]pyrimidin-4-ylamine]",7.60,7.43,5.52
"Cc1ccc(-c2nc(N)c3cc(Cc4ccccc4)sc3n2)o1 [Example 1, 6-Benzyl-2-(5-methyl-furan-2-yl)-thieno[2,3-d]pyrimidin-4-ylamine]",7.96,7.92,6.55
